Patent publication US8466145B2, “Dipeptidyl peptidase IV inhibitors” (Orchid Chemicals & Pharmaceuticals Limited, priority 2009, dated 2013)

Assays:
DPP-IV = target: T1, DPP-IV (Homo sapiens, UniProt P27487); experiment: DPP-IV inhibition, compounds screened by using human plasma; type: biochemical; conditions: screened by using human plasma (starred examples); for inhibition at 0.3 µM: 300 nM compound concentration
T1 construct: from tissue; host or cells: human plasma (per the earlier reading of the assay)
T1 sequence (P27487 39-766 limits assumed): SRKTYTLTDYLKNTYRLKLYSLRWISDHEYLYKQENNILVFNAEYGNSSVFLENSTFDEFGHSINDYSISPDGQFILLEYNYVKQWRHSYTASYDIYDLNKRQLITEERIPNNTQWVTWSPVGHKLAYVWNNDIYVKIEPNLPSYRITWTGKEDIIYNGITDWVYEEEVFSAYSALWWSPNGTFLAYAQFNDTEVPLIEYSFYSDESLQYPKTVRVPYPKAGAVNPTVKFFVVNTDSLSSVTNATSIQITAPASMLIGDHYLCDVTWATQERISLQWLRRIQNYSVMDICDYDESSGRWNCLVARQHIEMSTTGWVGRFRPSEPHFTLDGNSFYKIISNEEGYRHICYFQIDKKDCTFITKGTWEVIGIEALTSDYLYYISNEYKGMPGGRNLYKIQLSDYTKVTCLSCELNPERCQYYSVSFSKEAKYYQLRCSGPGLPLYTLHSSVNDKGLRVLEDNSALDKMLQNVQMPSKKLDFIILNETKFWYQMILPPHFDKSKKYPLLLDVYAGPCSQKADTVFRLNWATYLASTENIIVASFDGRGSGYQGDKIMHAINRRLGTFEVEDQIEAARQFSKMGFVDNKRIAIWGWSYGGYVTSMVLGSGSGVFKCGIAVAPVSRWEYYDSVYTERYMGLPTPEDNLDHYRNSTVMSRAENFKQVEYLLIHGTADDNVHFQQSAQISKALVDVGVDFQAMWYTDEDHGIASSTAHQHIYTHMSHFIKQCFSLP

| Compound | inhibition at 0.3 µM (DPP-IV) [%] | melting point [°C] | IC50 (DPP-IV) [nM] |
| --- | --- | --- | --- |
| CC1(C)[C@H](CS(=O)(=O)c2ccc(S(C)(=O)=O)cc2)CC[C@]1(C)NCC(=O)N1C[C@H](F)C[C@H]1C#N [Example 47, (2S,4R)-4-Fluoro-1-(2-((1S,3R)-1,2,2-trimethyl-3-((4-(methylsulfonyl)phenylsulfonyl)methyl)cyclopentylamino)acetyl)pyrrolidine-2-carbonitrile] | 13.5 | 172 to 175 | – |
| CC1(C)[C@H](c2nc(-c3ccc(F)cc3)no2)CC[C@]1(C)NCC(=O)N1C[C@@H](F)C[C@H]1C#N [Example 49, (2S,4S)-4-Fluoro-1-(2-((1S,3R)-3-(3-(4-fluorophenyl)-1,2,4-oxadiazol-5-yl)-1,2,2-trimethylcyclopentylamino)acetyl)pyrrolidine-2-carbonitrile] | – | 160 to 163 | 422 |
| CC(C)c1noc([C@H]2CC[C@@](C)(NCC(=O)N3C[C@@H](F)C[C@H]3C#N)C2(C)C)n1 [Example 52, (2S,4S)-4-Fluoro-1-(2-((1R,3S)-3-(3-isopropyl-1,2,4-oxadiazol-5-yl)-1,2,2-trimethylcyclopentylamino)acetyl)pyrrolidine-2-carbonitrile] | 29.2 | 91 to 94 | – |
| CN1C[C@]2(C)CC[C@](NCC(=O)N3C[C@H](F)C[C@H]3C#N)(C1)C2(C)C [Example 77, (2S,4R)-4-Fluoro-1-(2-((1R,5R)-3,5,8,8-tetramethyl-3-azabicyclo[3.2.1]octan-1-ylamino)acetyl)pyrrolidine-2-carbonitrile] | 13.4 | 74 to 79 | – |
